In the NIST ThermoML archive (doi:10.1021/je800828y):
± gives the expanded uncertainty stated by the source.

Conditions: 351.44 K; Liquid; Ebulliometric method (Recirculating still)

vapor or sublimation pressure: 101.3 ± 0.1 kPa
Compound: CCO [ethanol]
